Converted amounts (≈) assume the structure as drawn. “And” between values parts separate entries of the source, which are not always exact repeats. Identical values can stand only once. Like-named read-outs stand apart in the source and are kept apart here.
Key:
[1] = tested on: rice seeds (Fengyou Xiangzhan)
X. oryzae in rice plant [2] = assay type: in vivo, Xanthomonas oryzae pv. oryzae; conditions: 200 μg/mL, 14 days after spraying
[3] = tested on: Xanthomonas axonopodis pv. citri; assay: microbe, parasite or virus in culture; assay type: cell-based; conditions: for inhibition at 100 µg/mL / inhibition at 200 µg/mL: read-out: Inhibition rate
X. oryzae in rice plant [4] = conditions: 200 μg/mL; cited from earlier work
tobacco leaves = conditions: for Necrosis (lesion diameter) on tobacco leaves: Nicotiana benthamiana (tobacco)
Ralstonia solanacearum [5] = assay: microbe, parasite or virus in culture; assay type: cell-based; conditions: for EC50 / Inhibition rate: R. solanacearum; for inhibition at 100 µg/mL / inhibition at 200 µg/mL: read-out: Inhibition rate; for Inhibition rate: average of three replicates
[6] = tested on: Xanthomonas oryzae pv. oryzae; assay: microbe, parasite or virus in culture; assay type: cell-based; conditions: for inhibition at 100 µg/mL: read-out: Inhibition rate, X. oryzae, 100 μg/mL, average of three replicates; for inhibition at 200 µg/mL: read-out: Inhibition rate, X. oryzae, 200 μg/mL, average of three replicates; for Inhibition rate: average of three replicates
Ralstonia solanacearum [7] = conditions: R. solanacearum, previously reported analog, cited from earlier work
[8] = tested on: Xanthomonas oryzae pv. oryzae; conditions: X. oryzae, previously reported analog, cited from earlier work
[9] = Fengyou Xiangzhan, rice, in vivo
[10] = 50 to 300 μM, four days after inoculation

Row | Compound | Disease Index (X. oryzae in rice plant [2]) | Morbidity (X. oryzae in rice plant [2]) | Protective Efficiency (X. oryzae in rice plant [2]) | EC50 ([3]; Xanthomonas axonopodis) | inhibition at 100 µg/mL ([3]; Xanthomonas axonopodis) | inhibition at 200 µg/mL ([3]; Xanthomonas axonopodis) | Necrosis (lesion diameter) on tobacco leaves (tobacco leaves; in vivo) | Phytotoxic effect on tobacco plant (in words) (tobacco leaves; in vivo) | EC50 (Ralstonia solanacearum [5]; Ralstonia solanacearum) | inhibition at 100 µg/mL (Ralstonia solanacearum [5]; Ralstonia solanacearum) | inhibition at 200 µg/mL (Ralstonia solanacearum [5]; Ralstonia solanacearum) | EC50 ([6]; Xanthomonas oryzae) | inhibition at 100 µg/mL ([6]; Xanthomonas oryzae) | inhibition at 200 µg/mL ([6]; Xanthomonas oryzae) | further results
1 | S=c1[nH]nc(NCNc2n[nH]c(=S)s2)s1 [Bismerthiazol, 5,5′-(methylenediimino)bis-1,3,4-Thiadiazole-2(3H)-thione, reference compound] | 60.0 | 100.0% | 25.6% and 25.6 ± 4.4% | 119 µg/mL | 45% | 67% | 0.2–0.3 cm | no or negligible phytotoxic effect | 59.7 ± 2.56 µg/mL (≈ 214 µM) | 99% | 100% | 92.6 ± 2.15 µg/mL (≈ 333 µM) | 54% | 72% | Concentration showing phytotoxicity on rice germination [1, 9]: 300 µM; EC50 [3]: 119.5 ± 5.1 µg/mL; EC50 ([3]; Xanthomonas axonopodis, read-out: Bactericidal EC50 in molar terms): ~333 µM; Control efficiency against rice bacterial leaf blight (X. oryzae in rice plant [4]): 25.49%
2 | CS(=O)(=O)c1nnc(Cc2ccc(Cl)cc2Cl)o1 [C00001 (R = 2,4-di Cl, X = CH2)] | – | – | – | – | – | – | – | – | – | – | – | – | – | – | EC50 (Ralstonia solanacearum [7]; X = CH2): 59.9 ^26 μg/mL; EC50 ([8]; X = CH2): 1.96 ± 0.99 ^15 μg/mL
3 | CS(=O)(=O)c1nnc(-c2ccc(Cl)cc2Cl)o1 [C00001 (R = 2,4-di Cl, X = No Atom)] | – | – | – | – | – | – | – | – | – | – | – | – | – | – | EC50 (Ralstonia solanacearum [7]; X = No Atom): 16.55 ± 1.12 ^14 μg/mL; EC50 ([8]; X = No Atom): 52.14 ± 1.05 ^16 μg/mL
4 | CS(=O)(=O)c1nnc(Cc2ccc(Cl)cc2)o1 [C00001 (R = 4-Cl, X = CH2)] | – | – | – | – | – | – | – | – | – | – | – | – | – | – | EC50 ([8]; X = CH2): 12.23 ± 1.45 ^15 μg/mL
5 | CS(=O)(=O)c1nnc(-c2ccc(Cl)cc2)o1 [C00001 (R = 4-Cl, X = No Atom)] | – | – | – | – | – | – | – | – | – | – | – | – | – | – | EC50 (Ralstonia solanacearum [7]; X = No Atom): 120.90 ± 2.6 ^14 μg/mL; EC50 ([8]; X = No Atom): 23.21 ± 0.98 ^16 μg/mL
6 | CS(=O)(=O)c1nnc(Cc2ccc(F)cc2)o1 [C00001 (R = F, X = CH2), 2-(4-fluorobenzyl)-5-(methylsulfonyl)-1,3,4-oxadiazole] | – | – | – | – | – | – | – | – | – | – | – | – | – | – | EC50 ([8]; X = CH2): 1.07 ± 0.68 ^15 μg/mL
7 | CS(=O)(=O)c1nnc(-c2ccc(F)cc2)o1 [C00001 (R = F, X = No Atom), 2-(4-fluorophenzyl)-5-(methylsulfonyl)-1,3,4-oxadiazole] | – | – | – | – | – | – | – | – | – | – | – | – | – | – | EC50 (Ralstonia solanacearum [7]; X = No Atom): 8.29 ± 0.56 ^14 μg/mL; EC50 ([8]; X = No Atom): 9.89 ± 1.52 ^16 μg/mL
8 | CS(=O)(=O)c1nnc(COc2ccc(F)cc2)o1 [Compound 5I-1, 2-(4-Fluorophenoxymethyl)-5-(methylsulfonyl)-1,3,4-oxadiazole] | 15.6 | 100.0% | 90.4% and 90.4 ± 2.8% | 80.5 ± 5.38 µg/mL | 72% | 80% | 0.2–0.3 cm | no or negligible phytotoxic effect | 1.67 µg/mL (≈ 6.13 µM) | 100% | 100% | 0.45 ± 0.06 µg/mL (≈ 1.65 µM) | 100% | 100% | Phenotypic effect on rice seedlings, root growth and shoot development (in words) [1, 9]: barely effected root growth or inhibited shoot development at concentration 1–100 μM; Phenotypic effect on rice seedlings, root growth and shoot development (in words) ([1]; concentration (1–300 μM)): no apparently phytotoxicity; Phytotoxic effect on tobacco plant (in words) (tobacco leaves; [10]): no apparently phytotoxicity; EC50 (Ralstonia solanacearum [5]): 1.97 ± 0.23 µg/mL (≈ 7.24 µM); melting point: 108 to 110 °C
9 | CS(=O)(=O)c1nnc(COc2ccc(Cl)cc2)o1 [Compound 5I-2, 2-((4-Chlorophenoxy)methyl)-5-(methylsulfonyl)-1,3,4-oxadiazole] | 23.8 | 100.0% | 77.7% and 77.7 ± 3.4% | 31.4 ± 3.56 µg/mL | 76% | 88% | 0.2–0.3 cm | no or negligible phytotoxic effect | 13.4 ± 1.54 µg/mL (≈ 46.5 µM) | 100% | 100% | 1.44 ± 0.18 µg/mL (≈ 4.99 µM) | 100% | 100% | Phenotypic effect on rice seedlings, root growth and shoot development (in words) ([1]; concentration (1–300 μM)): no apparently phytotoxicity; Phenotypic effect on rice seedlings, root growth and shoot development (in words) ([1]; in vivo): predominantly inhibited root growth while allowing moderate shoot development; Phytotoxic effect on tobacco plant (in words) (tobacco leaves; [10]): no apparently phytotoxicity; melting point: 113 to 114 °C
10 | CS(=O)(=O)c1nnc(COc2ccc(Cl)cc2Cl)o1 [Compound 5I-4, 2-((2,4-Dichlorophenoxy)methyl)-5-(methylsulfonyl)-1,3,4-oxadiazole] | – | 100.0% | – | 49 ± 2.34 µg/mL | 48% | 69% | 0.2–0.3 cm | no or negligible phytotoxic effect | 20.5 ± 1.56 µg/mL (≈ 63.5 µM) | 100% | 100% | 0.72 ± 0.15 µg/mL (≈ 2.23 µM) | 100% | 100% | Phenotypic effect on rice seedlings, root growth and shoot development (in words) [1, 9]: severely inhibited both root growth and shoot development even at the lowest concentration 1 μM; Phenotypic effect on rice seedlings, root growth and shoot development (in words) ([1]; concentration (1–300 μM)): highly suppressed both root and shoot development
11 | Nc1nnc([S-])s1.Nc1nnc([S-])s1.[Cu+2] [Thiodiazole-copper, 2-amino-5-mercapto-1,3,4-thiadiazole-copper, reference compound] | 55.6 | 100.0% | 32.0 ± 3.0% | – | – | – | – | – | – | – | – | – | – | – | Protective Efficiency (X. oryzae in rice plant [2]; listed as Thiadiazole-copper): 32.0%; EC50 [3]: 107.04 ± 1.96 µg/mL; Inhibition rate [3]: 65% and 47%; EC50 (Ralstonia solanacearum [5]): >200 µg/mL; Inhibition rate (Ralstonia solanacearum [5]; 100 μg/mL): 35%; Inhibition rate (Ralstonia solanacearum [5]; 200 μg/mL): 50%; EC50 ([6]; X. oryzae): 121.82 ± 3.59 µg/mL; Inhibition rate ([6]; X. oryzae, 100 μg/mL): 35%; Inhibition rate ([6]; X. oryzae, 200 μg/mL): 69%
